# Data as given in US12667106B2, “Stabilized mutants of quorum quenching lactonase and use thereof in treatment of pathogens” (priority 2019, dated 2026).
# Legend:
# [1] = system: Erwinia amylovora; assay type: in vivo; conditions: field, 13 days post inoculation, FIG. 5C
# [2] = system: Erwinia amylovora; assay type: in vivo; conditions: 6 days post inoculation, 4 ppm, growth chamber
structure (smiles),measurement,setting,value
CCn1cc(C(=O)O)c(=O)c2cc3c(cc21)OCO3 [oxolinic acid],inhibition of fire blight symptoms,[1],70%
same,inhibition of flower infection relative to untreated control,[2],45%
